The values that follow come from ChEMBL document CHEMBL5390314, “Repurposing Azoles to Resolve Serotogenic Toxicity Associated with Linezolid to Combat Multidrug-Resistant Tuberculosis” (ACS Med Chem Lett, 2023).

The target of assay [1] is T1, Amine oxidase [flavin-containing] A (Homo sapiens, UniProt P21397).
T1 sequence (P21397 whole entry): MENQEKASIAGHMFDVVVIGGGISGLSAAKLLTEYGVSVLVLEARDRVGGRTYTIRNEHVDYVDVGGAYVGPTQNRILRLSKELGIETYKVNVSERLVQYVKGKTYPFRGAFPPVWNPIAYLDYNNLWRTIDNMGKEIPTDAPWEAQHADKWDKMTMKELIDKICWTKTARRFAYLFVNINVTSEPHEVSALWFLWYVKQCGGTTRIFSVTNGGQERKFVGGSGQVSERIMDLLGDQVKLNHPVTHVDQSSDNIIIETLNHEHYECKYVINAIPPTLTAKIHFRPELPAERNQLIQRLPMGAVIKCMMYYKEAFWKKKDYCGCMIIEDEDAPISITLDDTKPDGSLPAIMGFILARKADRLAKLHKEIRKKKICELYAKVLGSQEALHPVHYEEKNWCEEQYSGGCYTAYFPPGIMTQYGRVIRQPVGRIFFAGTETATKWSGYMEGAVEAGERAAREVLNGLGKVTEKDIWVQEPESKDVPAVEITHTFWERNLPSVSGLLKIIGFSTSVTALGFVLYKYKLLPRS
The experiment in a line: Inhibition of recombinant MAO-A (unknown origin) using kynuramine as a substrate by MAO assay. Format: toxicity.

Assay [2] concerns Mycobacterium tuberculosis. The assay can be described thus: Anti-mycobacterial activity against Mycobacterium tuberculosis H37Rv assessed as bacterial growth inhibition incubated for 7 days by microplate Alamar blue assay. The conditions noted are these: 168 h, time 7 day. Format: functional. A general note: The colour change of resazurin is a common sign of viable cells or microbes.

Assay [3] addresses T2, Amine oxidase [flavin-containing] B (Homo sapiens, UniProt P27338).
T2 sequence (P27338 whole entry): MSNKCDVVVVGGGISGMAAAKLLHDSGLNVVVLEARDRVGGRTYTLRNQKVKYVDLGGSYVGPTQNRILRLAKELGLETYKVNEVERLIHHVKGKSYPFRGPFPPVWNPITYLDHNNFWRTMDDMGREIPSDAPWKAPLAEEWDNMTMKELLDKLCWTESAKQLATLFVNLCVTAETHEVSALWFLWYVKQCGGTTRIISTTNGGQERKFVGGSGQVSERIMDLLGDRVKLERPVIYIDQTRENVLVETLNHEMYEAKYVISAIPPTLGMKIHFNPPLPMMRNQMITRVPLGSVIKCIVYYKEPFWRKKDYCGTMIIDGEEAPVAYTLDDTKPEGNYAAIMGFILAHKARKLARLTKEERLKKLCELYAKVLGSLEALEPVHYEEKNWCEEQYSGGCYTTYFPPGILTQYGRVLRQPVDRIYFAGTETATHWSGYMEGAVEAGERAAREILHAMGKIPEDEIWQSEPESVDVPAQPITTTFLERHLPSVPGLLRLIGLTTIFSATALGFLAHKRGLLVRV
The assay can be described thus: Inhibition of recombinant MAO-B (unknown origin) using benzylamine as a substrate by MAO assay. The format is toxicity.

Assay [4] relates to Mycobacterium tuberculosis. The assay can be described thus: Anti-mycobacterial activity against Mycobacterium tuberculosis clinical isolate assessed as bacterial growth inhibition incubated for 7 days by microplate Alamar blue assay. The format is functional. The conditions noted are these: 168 h, time 7 day.

Each structure is given as a SMILES string. ≈ marks a conversion by molar mass, not a printed value.

For orientation: IC50 means the midpoint of a concentration-inhibition curve. Usually MIC stands for the lowest concentration found to suppress growth. Broadly, the MIC50 is the lowest concentration that inhibits either 50% of growth or 50% of the strains tested, depending on the study. The term MIC90 denotes an inhibitory concentration at the 90% level, which refers to growth in some studies and to a panel of isolates in others. In the case of `Clc1ccccc1C(c1ccccc1)(c1ccccc1)n1ccnc1` [CLOTRIMAZOLE], the IC50 in assay [1] amounted to 25.4 µM; in assay [3] it was 31.2 µM. The minimum inhibitory concentration (MIC) in assay [2] came out at 2.26 µM (≈ 0.779 µg/mL). In assay [4], the MIC50 came to 0.87 µM (≈ 0.3 µg/mL). Moreover, the MIC90 in assay [4] worked out at 1.56 µM (≈ 0.538 µg/mL).

For `NNC(=O)c1ccncc1` [ISONIAZID], in assay [4], the MIC50 was under 0.2 µM and the MIC90 was under 0.2 µM.

`CCC(C)n1ncn(-c2ccc(N3CCN(c4ccc(OCC5COC(Cn6cncn6)(c6ccc(Cl)cc6Cl)O5)cc4)CC3)cc2)c1=O` (stereo unspecified) [ITRACONAZOLE]: the MIC in assay [2] is over 35 µM.

`CC(=O)NC[C@H]1CN(c2ccc(N3CCOCC3)c(F)c2)C(=O)O1` [LINEZOLID]: the half-inhibitory concentration (IC50) was 6.52 µM in assay [1] and 0.619 µM in assay [3]. Also, the MIC in assay [2] was found to be 2.31 µM (≈ 0.779 µg/mL). Also, in assay [4], the MIC50 was 0.34 µM (≈ 0.115 µg/mL). Moreover, the MIC90 in assay [4] amounted to 0.78 µM (≈ 0.263 µg/mL).

Regarding `Clc1ccc(COC(Cn2ccnc2)c2ccc(Cl)cc2Cl)c(Cl)c1` (stereo unspecified) [MICONAZOLE], the IC50 in assay [1] was 37.8 µM; in assay [3], 13.2 µM. Also, the MIC in assay [2] was determined as 3.74 µM (≈ 1.56 µg/mL). Further, in assay [4], the MIC50 stood at 1 µM (≈ 0.416 µg/mL). Moreover, the MIC90 in assay [4] was 1.56 µM (≈ 0.649 µg/mL).

Regarding `CC[C@@H]([C@H](C)O)n1ncn(-c2ccc(N3CCN(c4ccc(OC[C@@H]5CO[C@@](Cn6cncn6)(c6ccc(F)cc6F)C5)cc4)CC3)cc2)c1=O` [POSACONAZOLE], the MIC in assay [2] was over 35 µM.

As to `CO[C@H]1/C=C/O[C@@]2(C)Oc3c(C)c(O)c4c(O)c(c(/C=N/N5CCN(C)CC5)c(O)c4c3C2=O)NC(=O)/C(C)=C\C=C\[C@H](C)[C@H](O)[C@@H](C)[C@@H](O)[C@@H](C)[C@H](OC(C)=O)[C@@H]1C` [RIFAMPIN], in assay [4], the MIC50 was under 0.04 µM and the MIC90 was under 0.04 µM.
